Results on two compounds are retold here after patent publication US20110230571A1, “DIAGNOSTIC AND THERAPEUTIC PROTOCOLS” (ALFRED HEALTH, priority 2007, published 2011).

Where two headings read alike, the source gives them in different places.

What all share (format): cell-based
Experiment [1] relates to HIV-1 from patient plasma on TZMbl cells. Description: Infection of TZMbl indicator cells with virus pelleted from patient plasma (Example 2). Particulars: samples in DMEM-10 (n=9), plasma collected in the named anti-coagulant. How it is done:
(§1) Blood is collected from HIV-1-infected individuals in sodium heparin, anti-coagulant citrate dextrose (ACD) a ethylenediamine tetraacetic acid (EDTA) and/or any other anti-coagulant blood tubes. The plasma isolated from each tube is stored at −80° C. until use.
To pellet the virus, plasma was diluted 1 in 2 (to a final volume of 800 μL) and layered over a 20% w/v sucrose cushion. The plasma was centrifuged at 17,000×g for 2 hours at 4° C. […]
Samples are also resuspended in DMEM-10 media and added to TZMbl cells. […] Upon integration of the host genome with the HIV-1 genome, these two genes are expressed and can be measured (NIH AIDS Research and Reference Reagent Program, Division of AIDS, NIAID, NIH (Derdeyn et al. Journal of Virology 74:8358-8367, 2000; Platt et al. Journal of Virology 72:2855-2864, 1998; Wei et al. Antimicrobial Agents and Chemotherapy 46:1896-1905, 2002). Following HIV infection of TZMbls, there is an increase in β-gal expression over the next 5 days. Infection is most simply measured by counting the number of cells that express β-gal (or are blue). The maximum number of blue cells that can be counted by this assay is 300 cells. […]
At day 5 post-infection, GHOST cells are washed in phosphate buffered saline (PBS), detached from the plate with Trypsin-EDTA, washed twice in FACS wash and fixed with FACS Fix. […] Uninfected cells are analyzed as a negative/background control.

In experiment [2] the test system is HIV-1 from patient plasma on GHOSTX4R5 cells. The note with it: for number of patients whose virus infected GHOSTX4R5 cells: of 5 patients. As to the method: Matched patient blood samples were collected from HIV-1 positive, viraemic individuals, in sodium heparin, ACD and EDTA blood tubes.
To prepare a viral isolate pellet, plasma was diluted 1 in 2 (to a final volume of 800 μL) and layered over a 20% v/v sucrose cushion. The plasma was centrifuged at 17,000×g for 2 hours at 4° C. The supernatant was aspirated and the viral pellet was resuspended in 50 μL media as follows: • Sodium heparin samples: • Resuspended in GHOST media. • ACD samples: • One sample resuspended in GHOST media. • One sample resuspended in GHOST media plus Heparin at 20 U/mL. • One sample resuspended in GHOST media plus EDTA* • EDTA samples: • One sample resuspended in GHOST media. • One sample resuspended in GHOST media plus Heparin at 20 U/mL. • One sample resuspended in GHOST media plus ACD*
*ACD and EDTA were obtained by filling collection tubes with 9 mL of GHOST media. This media was then used undiluted to resuspend the pellet.
All samples contained Polybrene at 2 μg/mL.
Samples were added to GHOSTX4R5 cells which had been seeded the night before in a 96-well flat-bottomed TC plate at 10,000 cells/well. The cells were subjected to Spinoculation—centrifugation at 1200×g for 2 hours at room temperature. The volume of media was increased to 150 μL with GHOSTX4R5 media and the cells were incubated for 5 days.
The cells were washed in PD, detached from the plate with Trypsin-EDTA, washed 2× in FACS wash and fixed with FACS Fix. The cells were then analyzed by flow cytometry for GFP expression as an indication of HIV-1 infection. Cells infected with HIV-1 lab strains 89.6, NL4-3 and AD8 were run concurrently as positive controls for infection. Uninfected cells were analyzed as a negative/background control.

Experiment [3] has the same test system. How it is done: as §1
To pellet the virus, plasma was diluted 1 in 2 (to a final volume of 800 μL) and layered over a 20% w/v sucrose cushion. The plasma was centrifuged at 17,000×g for 2 hours at 4° C. The supernatant was aspirated and the viral pellet (viral isolate) was resuspended in 50 μL of GHOST media (Dulbecco's Modified Eagle's Medium (DMEM, Invitrogen, Auckland, NZ), 10% v/v Cosmic calf serum (Quantum Scientific, Milton, Qld), 1× Penicillin/Streptomycin/Glutamine (Invitrogen), 1 μg/mL Puromycin (Sigma, St. Louis, Mo.), 100 μg/mL Hygromycin (Sigma), 500 μg/mL G418 (AG Scientific, San Diego, Calif.)) or DMEM-10 (DMEM, 10% v/v Cosmic calf serum) in the presence and absence of Heparin (20 U/mL, David Bull Laboratories, Melbourne, Australia). All samples contain polybrene at 2 μg/mL. Samples resuspended in DMEM-10 contain 40 μg/mL DEAE-Dextran.
Samples were resuspended in GHOST media and added to GHOSTX4R5 cells which have been seeded 24 hours previously in a 96-well flat-bottomed plate at 10,000 cells/well. GHOSTX4R5 cells are an adherent cell line derived from human osteosarcoma (HOS cells). They are stably transfected with the HIV-2 LTR driving hGFP construct and express green fluorescent protein (GFP) when productively infected with HIV or SIV. The cells also stably express surface CD4, CCR5 and CXCR4 (Morner et al. Journal of Virology 73:2342-2349, 1999) (NIH AIDS Research and Reference Reagent Program, Division of AIDS, NIAID, NIH).
Both cell lines are infected at the same time with HIV-1 strains 89.6 (uses both CXCR4 and CCR5), NL4-3 (uses CXCR4 only) and AD8 (uses CCR5 only) as positive controls for infection. The cells are then subjected to spinoculation—centrifugation at 1200×g for 2 hours at room temperature. The volume of media is increased to 150 μL with media and the cells are incubated for 5 days. Samples are observed for the presence of clot formation at all stages.
At day 5 post-infection, GHOST cells are washed in phosphate buffered saline (PBS), detached from the plate with Trypsin-EDTA, washed twice in FACS wash and fixed with FACS Fix. The cells are then analyzed by flow cytometry for expression of GFP as an indication of HIV-1 infection. TZMbl cells are washed in PBS and fixed for 5 mins in fixative. Cells are washed once and 50 μL of β-gal substrate is added to each well. The cells are incubated at 37° C. for 2 hours. […] Under a light microscope, the number of blue-stained (HIV-1 infected) foci are counted. Uninfected cells are analyzed as a negative/background control.

Where [4] appears, read: Day 5 post-infection, named anti-coagulant combination.
The mark [5] stands for this setting: GHOSTX4R5 cells, samples in GHOST media (n=10), plasma collected in the named anti-coagulant.

Regarding `O=C(O)CN(CCN(CC(=O)O)CC(=O)O)CC(=O)O` [EDTA, ethylenediamine tetraacetic acid], the “patient samples with viral infection observed” value in experiment [1] is given as 22%; in experiment [3] (setting [5]), 30%. The “mean number of infected cells” value in experiment [2] (5 patients, ACD or EDTA added to samples) is given as “very low”. For the same compound, the “number of patients whose virus infected GHOSTX4R5 cells” value in experiment [2] (setting [4]) is given as 4.

For heparin, the “patient samples with viral infection observed” value came out at 33% in experiment [1]; 50% in experiment [3] (GHOSTX4R5 cells (n=10), plasma collected in ACD, heparin added to the resuspended plasma pellet); 40% in experiment [3] (GHOSTX4R5 cells (n=10), samples collected in EDTA to which heparin had been added); 40% in experiment [3] (setting [5]). In addition, in experiment [2] (5 patients, blood collected in sodium heparin, compared with other anti-coagulant combinations), the “mean number of GFP positive cells per 100,000 cells” value was “highest”. The “mean number of infected cells” value in experiment [2] (5 patients, heparin added to samples collected in ACD or EDTA, versus ACD or EDTA alone) is given as “slightly improved”. For the same compound, the “number of patients whose virus infected GHOSTX4R5 cells” value is reported as 3 in experiment [2] (setting [4]) and 5 in experiment [2] (viral isolates derived from ACD plasma to which heparin had been added).
